In paper PMC7660916, “The Salmonella enterica serovar Typhimurium virulence factor STM3169 is a hexuronic acid binding protein component of a TRAP transporter” (Microbiology, 2020):

Target: STM3169 (Salmonella enterica, UniProt Q8ZM02)
Assay: intrinsic fluorescence titration; supported by MST (KD […]) and thermal shift
Format: binding

Chain of STM3169 (Q8ZM02 entry or part of it): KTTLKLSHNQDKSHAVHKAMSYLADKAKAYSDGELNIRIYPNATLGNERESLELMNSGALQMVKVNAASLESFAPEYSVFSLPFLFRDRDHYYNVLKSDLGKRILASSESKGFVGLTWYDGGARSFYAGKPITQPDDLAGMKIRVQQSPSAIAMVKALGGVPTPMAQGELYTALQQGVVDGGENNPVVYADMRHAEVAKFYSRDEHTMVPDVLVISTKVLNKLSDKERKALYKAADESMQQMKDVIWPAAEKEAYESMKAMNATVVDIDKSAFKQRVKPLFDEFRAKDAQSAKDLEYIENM

Structure (SMILES): O=C(O)[C@H]1OC(O)[C@H](O)[C@@H](O)[C@@H]1O (stereo partly drawn) [D-glucuronate]
- Kd: 170 ± 77 nM
